Source: patent publication US10596150B2, “Antifungal agents” (F2G LIMITED, priority 2014, dated 2020)

Experiments:
[1] = test system: A. fumigatus strain A1163; test: Murine survival model of Aspergillus fumigatus infection (survival, kidney burden, serum galactomannan); assay type: in vivo, male CD-1 mice; details: for serum galactomannan indices: FIG. 6; for End of study tissue burden (kidney): surviving animals; for survival at end of study: therapy from 24 h post infection for 8 days
Experimental: Murine survival models are frequently used to assess the efficacy of antifungal drugs against Aspergillus. The models used in the development of Example 1 were carried out at Euprotec Ltd (Manchester) a contract research organisation (CRO) with extensive experience in the evaluation of antifungal drugs. The typical model involves the use of groups of 6-10 male CD-1 mice per treatment group. Mice are immunosuppressed with 200 mg/kg cyclophosphamide injected intraperitoneal 3 days prior to infection. A. fumigatus strain A1163 is cultured on Sabourauds agar for 4-6 days at 35° C. Spores are harvested in phosphate buffered saline (PBS)/Tween, the suspension diluted and the number of spores enumerated. Mice are then infected with an intravenous injection of A. fumigatus spores given through the lateral tail vein. The typical inoculum is 6-8×10^4 cfu/mouse and is sufficient to kill all untreated animals by Day 4-6. The animals die of IA and Aspergillus organisms can be detected in many body tissues. Treatment is typically commenced soon after infection but delays of up to 24 h following infection produce a more challenging model. Treatment is continued for 7-9 days. Treatment may be up to 3 times daily using an oral dosing. Following cessation of treatment, animals are observed for 1-2 days, and then sacrificed. Relevant controls treated with oral drug-free vehicle are always included; ideally there should be no survivors in this group. A positive control consisting of an antifungal drug such as Reference Example 10 was used. This compound consistently produces 100% survival at doses of 10 mg/kg b.i.d. dosed by the oral route. Most models are run as temporary neutropenic models where only a single dose of cyclophosphamide is administered.
The fungal burden in the kidney can be determined on animals surviving to the end of the study and this can help provide efficacy discrimination between groups where all animals survive. Tissue burdens are carried out by removing the kidneys from animals when they are culled at the end of the study. These are homogenised in saline and plated onto Sabourauds agar and incubated at 35° C. for 72 h. Aspergillus colonies are counted and the amount of aspergillus per gram of kidney calculated. The results are expressed as colony forming units per gramme (cfu/g). […] However, data from studies where tissue burden has been carried out on untreated animals at day 4 or 5 has shown that tissue burdens are typically in excess of 20,000 cfu/g and may exceed 100,000 cfu/g in some studies.
In some of the survival studies described below serum samples were collected from surviving mice at the end of the study or on mice that succumbed to infection during the study to examine the effect of Example 1 on galactomannan levels and to see if there was a relationship between galactomannan levels and survival.
The galactomannan assays were carried out on serum samples that had been stored frozen at −80° C. Samples were thawed and assayed using a Platelia Aspergillus Ag enzyme-linked immunosorbent assay (ELISA) kit (Biorad). The assay was modified slightly to take into account the small sample volumes available from mice. If assay results were high a repeat test was carried out on a sample diluted in normal mouse serum. The amount of galactomannan in a sample is presented as a galactomannan index. The mean galactomannan index for each group was calculated and is presented graphically against each treatment regimen.
The survival study carried assessed the dose response of Example 1. Example 1 was dosed orally to A. fumigatus infected mice at 2 dose levels 10 mg/kg b.i.d. and 3 mg/kg b.i.d. Therapy was initiated at 24 h post infection and therapy continued for 8 days. At the end of the study kidney burdens were measured on surviving animals. In addition serum samples were taken at the end of the study from all surviving animals and from each animal that died during the course of the study. […]

L. prolificans FMR 3569 = test: Lomentospora prolificans FMR 3569 disseminated infection model (survival, tissue burden); assay type: in vivo, Male OF-1 mice; details: VRC 25 mg/kg p.o. QD; Example 1 20 mg/k p.o. BID; from day 1 after challenge for 9 days
Experimental: L. prolificans (also known as Scedosporium prolificans or S. prolificans) was grown on Potato Dextrose Agar (PDA) for 5 days at 35° C. On the day of infection, cultures were flooded with sterile saline and filtered through sterile gauze to remove clumps of conidia and hyphae. The resulting suspensions were adjusted by haemocytometer count and by serial plating to confirm viability.
Male OF-1 mice with a mean weight of 30 g were used in the experiment. Mice were housed in standard boxes with food and water ad libitum.
Mice were rendered neutropenic two days prior to infection by an intraperitoneal (i.p.) injection of 200 mg/kg of cyclophosphamide, and once every 5 days thereafter (Clemons et al, 2005).
Mice were challenged with 5×10^4 CFU/animal of L. prolificans FMR 3569, in a volume of 0.2 ml of sterile saline into the lateral tail vein.
Treatments consisted of (a) voriconazole (VRC) (Vfend; Pfizer S. A., Madrid, Spain) at 25 mg/kg p.o, by gavage QD; (b) Example 1 at 20 mg/k, p.o, by gavage BID; and (c) no treatment. From 3 days before infection, mice that received VRC were given grapefruit juice instead of water (Sugar & Liu, 2001). All treatments began 1 day after challenge, and the therapy lasted for 9 days. Controls received no treatment.
For survival studies groups of 10 mice were randomly established for each therapy. Mortality was recorded daily until the end of the experiment. […]

With `Cc1cc(-c2ccccc2)c(C(=O)C(=O)Nc2ccc(N3CCN(c4ncc(F)cn4)CC3)cc2)n1C` [Example 1, 2-(1,5-dimethyl-3-phenyl-1H-pyrrol-2-yl)-N-(4-(4-(5-fluoropyrimidin-2-yl)piperazin-1-yl)phenyl)-2-oxoacetamide] the serum galactomannan indices ([1]; 3 mg/kg b.i.d. oral, similar magnitude to untreated animals) was “correspondingly high”, the “End of study tissue burden (kidney)” value ([1]; 3 mg/kg b.i.d. oral) was 3021 cfu/gm and the “survival at end of study” value ([1]; 3 mg/kg b.i.d. oral) was 10%. The serum galactomannan indices ([1]; 10 mg/kg b.i.d. oral) was “very low”, the “End of study tissue burden (kidney)” value ([1]; 10 mg/kg b.i.d. oral) was 1114 cfu/gm and the “survival at end of study” value ([1]; 10 mg/kg b.i.d. oral) was 100%. For the same compound, the “survival rates compared with the control (FIG. 7)” value (L. prolificans FMR 3569) was “improved survival rates”.
